Tests used:
HCC1806 = assay: Cytotoxicity against human HCC1806 cells assessed as inhibition of cell viability incubated for 72 hrs by SRB assay; assay type: functional, cell-based; conditions: HCC1806, 72 h
MDA-MB-231 = assay: Cytotoxicity against human MDA-MB-231 cells assessed as inhibition of cell viability incubated for 72 hrs by SRB assay; assay type: functional, cell-based; conditions: MDA-MB-231, 72 h
[1] = Stability in human plasma assessed as half life at 100 uM by LC-MS/MS analysis; assay type: ADME, cell-free

| Structure (SMILES) | IC50 (HCC1806) [nM] | IC50 (MDA-MB-231) [nM] | half-life at 100 µM [1] [h] |
| --- | --- | --- | --- |
| C=C1C(=O)[C@]23[C@H](OC(=O)Cc4cc(OC)c(OC)c(OC)c4)[C@H]1CC[C@H]2[C@]12C=CCC(C)(C)[C@H]1[C@H](O)[C@@]3(O)OC2 | > 10000 | > 10000 | – |
| C=C1C(=O)[C@@]23C(=O)[C@@H]4OC[C@]5(C(=O)CCC(C)(C)[C@@H]45)[C@@H]2CC[C@@H]1[C@H]3OC(=O)Cc1cc(OC)c(OC)c(OC)c1 | 5070 | 2600 | – |
| C=C1C(=O)[C@]23[C@H](OC(=O)C45CC6CC(CC(C6)C4)C5)[C@H]1CC[C@H]2[C@@]12CO[C@]3(O)[C@@H](O)[C@@H]1C(C)(C)CC[C@@H]2OC(C)=O | 1480 | 550 | – |
| C=C1C(=O)[C@]23[C@H](OC(=O)Cc4ccccc4Br)[C@H]1CC[C@H]2[C@@]12CO[C@]3(O)[C@@H](O)[C@@H]1C(C)(C)CCC2=O | 7120 | 3580 | – |
| C=C1C(=O)[C@@]23C(=O)[C@@H]4OC[C@@]5([C@H]4C(C)(C)CC[C@@H]5O)[C@@H]2CC[C@@H]1[C@H]3OC(=O)c1ccc(N(CCCl)CCCl)cc1 | 1610 | 1830 | – |
| C=C1C(=O)[C@]23[C@H](OC(=O)c4ccc(N(CCCl)CCCl)cc4)[C@H]1CC[C@H]2[C@]12C=CCC(C)(C)[C@H]1[C@H](O)[C@@]3(O)OC2 | 1400 | 1090 | – |
| C=C1C(=O)[C@@]23C(=O)[C@@H]4OC[C@]5(C(=O)CCC(C)(C)[C@@H]45)[C@@H]2CC[C@@H]1[C@H]3OC(=O)c1ccc(N(CCCl)CCCl)cc1 | > 10000 | 5700 | – |
| C=C1C(=O)[C@]23[C@H](OC(=O)Cc4ccc(OC)c(OC)c4)[C@H]1CC[C@H]2[C@]12C=CCC(C)(C)[C@H]1[C@H](O)[C@@]3(O)OC2 | > 10000 | > 10000 | – |
| C=C1C(=O)[C@]23[C@H](OC(=O)Cc4ccc(OC)c(OC)c4)[C@H]1CC[C@H]2[C@@]12CO[C@]3(O)[C@@H](O)[C@@H]1C(C)(C)CCC2=O | > 10000 | 8430 | – |
| C=C1C(=O)[C@]23[C@H](OC(=O)C45CC6CC(CC(C6)C4)C5)[C@H]1CC[C@H]2[C@]12C=CCC(C)(C)[C@H]1[C@H](O)[C@@]3(O)OC2 | 2610 | 2420 | – |
| C=C1C(=O)[C@@]23C(=O)[C@@H]4OC[C@]5(C(=O)CCC(C)(C)[C@@H]45)[C@@H]2CC[C@@H]1[C@H]3OC(=O)Cc1ccc(N(CCCl)CCCl)cc1 | > 10000 | 11400 | – |
| C=C1C(=O)[C@@]23C(=O)[C@@H]4OC[C@]5(C(=O)CCC(C)(C)[C@@H]45)[C@@H]2CC[C@@H]1[C@H]3OC(=O)Cc1ccc(OC)c(OC)c1 | 2580 | 1810 | – |
| C=C1C(=O)[C@@]23C(=O)[C@@H]4OC[C@]5(C(=O)CCC(C)(C)[C@@H]45)[C@@H]2CC[C@@H]1[C@H]3OC(=O)Cc1ccc(OC)cc1 | 4600 | 3060 | – |
| C=C1C(=O)[C@]23[C@H](O)[C@H]1CC[C@H]2[C@@]12CO[C@@]3(O)[C@@H](O)[C@@H]1C(C)(C)CC[C@@H]2OC(C)=O | 2680 | 2490 | – |
| C=C1C(=O)[C@@]23C(=O)[C@@H]4OC[C@]5(C=CCC(C)(C)[C@@H]45)[C@@H]2CC[C@@H]1[C@H]3OC(=O)Cc1cc(OC)c(OC)c(OC)c1 | 5540 | 3820 | – |
| C=C1C(=O)[C@]23[C@H](OC(=O)/C=C/c4ccc(N(C)C)cc4)[C@H]1CC[C@H]2[C@@]12CO[C@]3(O)[C@@H](O)[C@@H]1C(C)(C)CCC2=O | 2770 | 1790 | – |
| C=C1C(=O)[C@]23[C@H](OC(=O)Cc4cc(OC)c(OC)c(OC)c4)[C@H]1CC[C@H]2[C@@]12CO[C@]3(O)[C@@H](O)[C@@H]1C(C)(C)CCC2=O | > 10000 | > 10000 | – |

| Structure (SMILES) | IC50 (HCC1806) [nM] | IC50 (MDA-MB-231) [nM] | half-life at 100 µM [1] [h] |
| --- | --- | --- | --- |
| C=C1C(=O)[C@]23[C@H](OC(=O)Cc4ccc(OC)cc4)[C@H]1CC[C@H]2[C@]12C=CCC(C)(C)[C@H]1[C@H](O)[C@@]3(O)OC2 | > 10000 | > 10000 | – |
| C=C1C(=O)[C@@]23C(=O)[C@@H]4OC[C@@]5([C@H]4C(C)(C)CC[C@@H]5O)[C@@H]2CC[C@@H]1[C@H]3OC(=O)C12CC3CC(CC(C3)C1)C2 | 2130 | 1500 | – |
| C=C1C(=O)[C@@]23C(=O)[C@@H]4OC[C@]5(C(=O)CCC(C)(C)[C@@H]45)[C@@H]2CC[C@@H]1[C@H]3OC(=O)Cc1ccccc1Br | > 10000 | > 10000 | – |
| C=C1C(=O)[C@]23[C@H](OC(=O)Cc4ccc(OC)cc4)[C@H]1CC[C@H]2[C@@]12CO[C@]3(O)[C@@H](O)[C@@H]1C(C)(C)CCC2=O | > 10000 | > 10000 | – |
| C=C1C(=O)[C@@]23C(=O)[C@@H]4OC[C@]5([C@@H](OC(C)=O)CCC(C)(C)[C@@H]45)[C@@H]2CC[C@@H]1[C@H]3OC(=O)C12CC3CC(CC(C3)C1)C2 | 2390 | 1410 | – |
| C=C1C(=O)[C@@]23C(=O)[C@@H]4OC[C@]5(C=CCC(C)(C)[C@@H]45)[C@@H]2CC[C@@H]1[C@H]3OC(=O)c1ccc(N(CCCl)CCCl)cc1 | 3020 | 2210 | – |
| C=C1C(=O)[C@]23[C@H](OC(=O)C45CC6CC(CC(C6)C4)C5)[C@H]1CC[C@H]2[C@@]12CO[C@]3(O)[C@@H](O)[C@@H]1C(C)(C)CCC2=O | 1910 | 1430 | – |
| C=C1C(=O)[C@]23[C@H](O)[C@H]1CC[C@H]2[C@@]12CO[C@]3(O)[C@@H](O)[C@@H]1C(C)(C)CCC2=O | 3560 | 2070 | – |
| C=C1C(=O)[C@@]23C(=O)[C@@H]4OC[C@]5(C=CCC(C)(C)[C@@H]45)[C@@H]2CC[C@@H]1[C@H]3OC(=O)C12CC3CC(CC(C3)C1)C2 | 5510 | 3660 | – |
| C=C1C(=O)[C@]23[C@H](OC(=O)c4ccc(N(CCCl)CCCl)cc4)[C@H]1CC[C@H]2[C@@]12CO[C@]3(O)[C@@H](O)[C@@H]1C(C)(C)CCC2=O | 3640 | 1720 | – |
| C=C1C(=O)[C@]23[C@H](OC(=O)Cc4ccc(N(CCCl)CCCl)cc4)[C@H]1CC[C@H]2[C@@]12CO[C@]3(O)[C@@H](O)[C@@H]1C(C)(C)CCC2=O | > 10000 | 7290 | – |
| C=C1C(=O)[C@@]23C(=O)[C@@H]4OC[C@]5(C(=O)CCC(C)(C)[C@@H]45)[C@@H]2CC[C@@H]1[C@H]3OC(=O)C12CC3CC(CC(C3)C1)C2 | 5590 | 3260 | – |
| C=C1C(=O)[C@]23[C@H](O)[C@H]1CC[C@H]2[C@@]12CO[C@]3(O)[C@@H](O)[C@@H]1C(C)(C)CC[C@@H]2O [ORIDONIN] | 12600 | 5310 | 1.45 |
| C=C1C(=O)[C@]23[C@H](OC(=O)c4ccc(N(CCCl)CCCl)cc4)[C@H]1CC[C@H]2[C@@]12CO[C@]3(O)[C@@H](O)[C@@H]1C(C)(C)CC[C@@H]2O | 1320 | 1670 | – |
| C=C1C(=O)[C@@]23C(=O)[C@@H]4OC[C@]5(C=CCC(C)(C)[C@@H]45)[C@@H]2CC[C@@H]1[C@H]3O | 4010 | 2780 | – |
| C=C1C(=O)[C@]23[C@H](O)[C@H]1CC[C@H]2[C@]12C=CCC(C)(C)[C@H]1[C@H](O)[C@@]3(O)OC2 | 910 | 870 | – |

From ChEMBL document CHEMBL6134781, “In vitro identification of oridonin hybrids as potential anti-TNBC agents inducing cell cycle arrest and apoptosis by regulation of p21, γH2AX and cleaved PARP” (RSC Med Chem, 2024)
